Source: patent US20230287044A1, “NOVEL ANTIBACTERIAL PEPTIDE AND USE THEREOF” (priority 2020, published 2023)
Converted amounts (≈) assume the structure as drawn. Square brackets hold non-standard residues; d marks the D form. Peptide text beside a SMILES is read from it.

Assays:
[1] = tested on: MRPA (P. aeruginosa) CCARM 2180; type: cell-based, Pseudomonas aeruginosa; conditions: CCARM 2180, 18 h
Summary of the method: (§1)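 Mid-log cultures grown in CAMHB and diluted to 1× 10^6 cfu/ml in PBS were mixed with an equal volume of peptide in CAMHB (80 µM to 0.63 µM twofold dilutions). MIC taken as the mean of three independent experiments.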

[2] = tested on: MRAB (A. baumannii) ATCC BAA 1605; type: cell-based, Acinetobacter baumannii; conditions: ATCC BAA 1605, 18 h
Description: The minimum growth inhibitory concentrations of the antibacterial peptides of the present invention weremeasured, and the results are shown in Table 3 below.
Specifically, the strains were grown in CAMHB until the midlog phase, and then diluted with PBS buffer to 1× 10^6 cfu/ml to prepare the bacterial solution, and the antibacterial peptide prepared in Example 1above was diluted with CAMHB to 80 µM, 40 µM, 20 µM, 10 µM, 5 µM, 2.5 µM, 1.25 µM and 0.63 µM, and then the bacterial solution was treated with the same volume.
The results are the average value of three independent experiments.

[3] = tested on: MRSA (S. aureus) KCCM 40510; type: cell-based, Staphylococcus aureus; conditions: KCCM 40510, 18 h
Summary of the method: as §1

[4] = tested on: VRE (E. faecalis) ATCC 51575; type: cell-based, Enterococcus faecalis; conditions: ATCC 51575, 18 h
Summary of the method: as §1

| Compound | MIC MRPA (P. aeruginosa) CCARM 2180 [1] [µM] | MIC MRAB (A. baumannii) ATCC BAA 1605 [2] | MIC MRSA (S. aureus) KCCM 40510 [3] [µM] | MIC VRE (E. faecalis) ATCC 51575 [4] [µM] |
| --- | --- | --- | --- | --- |
| CC[C@@H](C)[C@@H](NC(=O)[C@@H](Cc1c[nH]c2ccccc12)NC(=O)[C@@H](CCCNC(=N)N)NC(=O)[C@@H](CCCNC(=N)N)NC(=O)[C@H](N)CCCNC(=N)N)C(=O)N[C@H](Cc1c[nH]c2ccccc12)C(=O)N[C@H](C)C(=O)N[C@H](C)C(=O)N[C@H](Cc1c[nH]c2ccccc12)C(=O)N[C@H](CCCCN)C(N)=O [KSH74, rrrwiwaawk] (H-[dR][dR][dR][dW][dI][dW][dA][dA][dW][dK]-NH2; N-terminus assumed) | >10 | 2.5 µM (≈ 3.57 µg/mL) | >10 | >10 |
| CC[C@@H](C)[C@@H](NC(=O)[C@@H](Cc1c[nH]c2ccccc12)NC(=O)[C@@H](C)NC(=O)[C@@H](C)NC(=O)[C@H](N)Cc1c[nH]c2ccccc12)C(=O)NCC(=O)N[C@H](CC(C)C)C(=O)N[C@H](CCCNC(=N)N)C(=O)N[C@H](CCCCN)C(=O)N[C@H](CCCCN)C(=O)N[C@H](CCCCN)C(N)=O [KSH75, waawiglrkkk] (H-[dW][dA][dA][dW][dI]G[dL][dR][dK][dK][dK]-NH2; N-terminus assumed) | >10 | 2.5 µM (≈ 3.39 µg/mL) | >10 | >10 |
| CC[C@@H](C)[C@@H](NC(=O)[C@@H](Cc1c[nH]c2ccccc12)NC(=O)[C@@H](C)NC(=O)[C@@H](C)NC(=O)[C@H](N)Cc1c[nH]c2ccccc12)C(=O)NCC(=O)N[C@H](CC(C)C)C(=O)N[C@H](CCCNC(=N)N)C(=O)N[C@H](CCCNC(=N)N)C(=O)N[C@H](CCCCN)C(=O)N[C@H](CCCCN)C(N)=O [KSH76, waawiglrrkk] (H-[dW][dA][dA][dW][dI]G[dL][dR][dR][dK][dK]-NH2; N-terminus assumed) | >10 | 1.25~2.5 µM | >10 | >10 |
| CC[C@@H](C)[C@@H](NC(=O)[C@@H](Cc1c[nH]c2ccccc12)NC(=O)[C@@H](C)NC(=O)[C@@H](C)NC(=O)[C@H](N)Cc1c[nH]c2ccccc12)C(=O)NCC(=O)N[C@H](CC(C)C)C(=O)N[C@H](CCCNC(=N)N)C(=O)N[C@H](CCCCN)C(=O)N[C@H](CCCNC(=N)N)C(=O)N[C@H](CCCCN)C(N)=O [KSH77, waawiglrkrk] (H-[dW][dA][dA][dW][dI]G[dL][dR][dK][dR][dK]-NH2; N-terminus assumed) | >10 | 2.5 µM (≈ 3.46 µg/mL) | >10 | >10 |
| CC[C@@H](C)[C@@H](NC(=O)[C@@H](Cc1c[nH]c2ccccc12)NC(=O)[C@@H](C)NC(=O)[C@@H](C)NC(=O)[C@H](N)Cc1c[nH]c2ccccc12)C(=O)NCC(=O)N[C@H](CC(C)C)C(=O)N[C@H](CCCNC(=N)N)C(=O)N[C@H](CCCNC(=N)N)C(N)=O [KSH78, waawiglrr] (H-[dW][dA][dA][dW][dI]G[dL][dR][dR]-NH2; N-terminus assumed) | >10 | 5 µM (≈ 5.64 µg/mL) | >10 | >10 |
| CC(C)[C@@H](NC(=O)[C@@H](Cc1c[nH]c2ccccc12)NC(=O)[C@@H](Cc1c[nH]c2ccccc12)NC(=O)[C@H](NC(=O)[C@@H](Cc1c[nH]c2ccccc12)NC(=O)[C@@H](CCCNC(=N)N)NC(=O)[C@@H](CCCNC(=N)N)NC(=O)[C@H](N)CCCNC(=N)N)C(C)C)C(=O)N[C@H](Cc1c[nH]c2ccccc12)C(=O)N[C@H](Cc1c[nH]c2ccccc12)C(N)=O [KSH79, rrrwvwwvww] (H-[dR][dR][dR][dW][dV][dW][dW][dV][dW][dW]-NH2; N-terminus assumed) | 2.5 (≈ 4.04 µg/mL) | 10 µM (≈ 16.1 µg/mL) | 1.25 (≈ 2.02 µg/mL) | 1.25 (≈ 2.02 µg/mL) |
| CC(C)[C@@H](NC(=O)[C@@H](Cc1c[nH]c2ccccc12)NC(=O)[C@@H](CCCNC(=N)N)NC(=O)[C@@H](CCCNC(=N)N)NC(=O)[C@H](N)CCCNC(=N)N)C(=O)N[C@H](Cc1c[nH]c2ccccc12)C(=O)N[C@H](Cc1c[nH]c2ccccc12)C(=O)N[C@@H](C(=O)N[C@@H](C(=O)N[C@H](Cc1c[nH]c2ccccc12)C(N)=O)C(C)C)C(C)C [KSH80, rrrwvwwvvw] (H-[dR][dR][dR][dW][dV][dW][dW][dV][dV][dW]-NH2; N-terminus assumed) | 2.5 (≈ 3.82 µg/mL) | 10 µM (≈ 15.3 µg/mL) | 1.25 (≈ 1.91 µg/mL) | 1.25 (≈ 1.91 µg/mL) |
| CC(C)[C@@H](NC(=O)[C@@H](Cc1c[nH]c2ccccc12)NC(=O)[C@@H](CCCNC(=N)N)NC(=O)[C@@H](CCCNC(=N)N)NC(=O)[C@H](N)CCCNC(=N)N)C(=O)N[C@H](Cc1c[nH]c2ccccc12)C(=O)N[C@@H](C(=O)N[C@@H](C(=O)N[C@H](Cc1c[nH]c2ccccc12)C(=O)N[C@H](Cc1c[nH]c2ccccc12)C(N)=O)C(C)C)C(C)C [KSH81, rrrwvwvvww] (H-[dR][dR][dR][dW][dV][dW][dV][dV][dW][dW]-NH2; N-terminus assumed) | 5 (≈ 7.64 µg/mL) | 10 µM (≈ 15.3 µg/mL) | 1.25 (≈ 1.91 µg/mL) | 1.25 (≈ 1.91 µg/mL) |
| CC(C)[C@@H](NC(=O)[C@@H](Cc1c[nH]c2ccccc12)NC(=O)[C@@H](CCCNC(=N)N)NC(=O)[C@@H](CCCNC(=N)N)NC(=O)[C@H](N)CCCNC(=N)N)C(=O)N[C@H](Cc1c[nH]c2ccccc12)C(=O)N[C@@H](C(=O)N[C@@H](C(=O)N[C@@H](C(=O)N[C@H](Cc1c[nH]c2ccccc12)C(N)=O)C(C)C)C(C)C)C(C)C [KSH82, rrrwvwvvvw] (H-[dR][dR][dR][dW][dV][dW][dV][dV][dV][dW]-NH2; N-terminus assumed) | 10 (≈ 14.4 µg/mL) | 10 µM (≈ 14.4 µg/mL) | 1.25 (≈ 1.8 µg/mL) | 1.25 (≈ 1.8 µg/mL) |
| CC(C)[C@@H](NC(=O)[C@@H](Cc1c[nH]c2ccccc12)NC(=O)[C@H](NC(=O)[C@H](NC(=O)[C@@H](Cc1c[nH]c2ccccc12)NC(=O)[C@@H](CCCNC(=N)N)NC(=O)[C@@H](CCCNC(=N)N)NC(=O)[C@H](N)CCCNC(=N)N)C(C)C)C(C)C)C(=O)N[C@H](Cc1c[nH]c2ccccc12)C(=O)N[C@H](Cc1c[nH]c2ccccc12)C(N)=O [KSH83, rrrwvvwvww] (H-[dR][dR][dR][dW][dV][dV][dW][dV][dW][dW]-NH2; N-terminus assumed) | 5 (≈ 7.64 µg/mL) | 10 µM (≈ 15.3 µg/mL) | 1.25 (≈ 1.91 µg/mL) | 1.25 (≈ 1.91 µg/mL) |
| CC(C)[C@@H](NC(=O)[C@@H](Cc1c[nH]c2ccccc12)NC(=O)[C@H](NC(=O)[C@H](NC(=O)[C@@H](Cc1c[nH]c2ccccc12)NC(=O)[C@@H](CCCNC(=N)N)NC(=O)[C@@H](CCCNC(=N)N)NC(=O)[C@H](N)CCCNC(=N)N)C(C)C)C(C)C)C(=O)N[C@@H](C(=O)N[C@H](Cc1c[nH]c2ccccc12)C(N)=O)C(C)C [KSH84, rrrwvvwvvw] (H-[dR][dR][dR][dW][dV][dV][dW][dV][dV][dW]-NH2; N-terminus assumed) | 2.5 (≈ 3.6 µg/mL) | 10 µM (≈ 14.4 µg/mL) | 1.25 (≈ 1.8 µg/mL) | 1.25 (≈ 1.8 µg/mL) |
| CC(C)[C@@H](NC(=O)[C@@H](Cc1c[nH]c2ccccc12)NC(=O)[C@@H](CCCNC(=N)N)NC(=O)[C@@H](CCCNC(=N)N)NC(=O)[C@H](N)CCCNC(=N)N)C(=O)N[C@@H](C(=O)N[C@@H](C(=O)N[C@@H](C(=O)N[C@H](Cc1c[nH]c2ccccc12)C(=O)N[C@H](Cc1c[nH]c2ccccc12)C(N)=O)C(C)C)C(C)C)C(C)C [KSH85, rrrwvvvvww] (H-[dR][dR][dR][dW][dV][dV][dV][dV][dW][dW]-NH2; N-terminus assumed) | 10 (≈ 14.4 µg/mL) | 10 µM (≈ 14.4 µg/mL) | 1.25 (≈ 1.8 µg/mL) | 1.25 (≈ 1.8 µg/mL) |
| CC(C)[C@@H](NC(=O)[C@@H](Cc1c[nH]c2ccccc12)NC(=O)[C@@H](CCCNC(=N)N)NC(=O)[C@@H](CCCNC(=N)N)NC(=O)[C@H](N)CCCNC(=N)N)C(=O)N[C@@H](C(=O)N[C@@H](C(=O)N[C@@H](C(=O)N[C@@H](C(=O)N[C@H](Cc1c[nH]c2ccccc12)C(N)=O)C(C)C)C(C)C)C(C)C)C(C)C [KSH86, rrrwvvvvvw] (H-[dR][dR][dR][dW][dV][dV][dV][dV][dV][dW]-NH2; N-terminus assumed) | 10 (≈ 13.5 µg/mL) | 10 µM (≈ 13.5 µg/mL) | 1.25 (≈ 1.69 µg/mL) | 1.25 (≈ 1.69 µg/mL) |
| CC(C)[C@@H](NC(=O)[C@@H](Cc1c[nH]c2ccccc12)NC(=O)CNC(=O)[C@@H](CCCNC(=N)N)NC(=O)[C@@H](CCCNC(=N)N)NC(=O)[C@H](N)CCCNC(=N)N)C(=O)N[C@H](Cc1c[nH]c2ccccc12)C(=O)N[C@@H](C(=O)N[C@@H](C(=O)N[C@H](Cc1c[nH]c2ccccc12)C(=O)N[C@H](CCCCN)C(N)=O)C(C)C)C(C)C [KSH90, rrrgwvwvvwk] (H-[dR][dR][dR]G[dW][dV][dW][dV][dV][dW][dK]-NH2; N-terminus assumed) | 5 (≈ 7.63 µg/mL) | 5 µM (≈ 7.63 µg/mL) | 1.25 (≈ 1.91 µg/mL) | 1.25 (≈ 1.91 µg/mL) |
